US9750742B2, “Small molecular inhibitors of RAD51 recombinase and methods thereof” (Drexel University, priority 2011, dated 2017)

Assays:
[1] = biological target: T1, RecA (Escherichia coli, UniProt P0A7G6); test: biochemical; set-up: species or system E. coli
T1 construct: purchased USB Inc. (Cleveland, Ohio)
Experimental: (Mazin et al., 2000, EMBO J. 19:1148-56). When indicated, chemical compounds in specified concentrations were added and incubation was continued for 30 min at 37° C. D-loop formation was initiated by addition of supercoiled pUC19 dsDNA (50 μM, nt) and carried out for 3 min at 37° C. The DNA products were deproteinized and analyzed as described above for the Rad51-promoted reaction.
IC50 values were calculated using GraphPad Prism V5.0 software and the sigmoidal dose-response function. The data were obtained from three independent repeats of experiments.

[2] = test system: I-SceI; test: Western blotting, I-SceI expression level; assay type: cell-based; conditions: with or without B02
Experimental: Then, both pCBASce-transfected and untransfected cells were trypsinized and resuspended in DMEM supplemented with 10% FBS, 100 units/ml penicillin and 100 μg/ml streptomycin. The suspensions were centrifuged at 1000×g for 5 min at 4° C., the pellets were washed 3 times with cold PBS and then resuspended in lysate buffer containing 50 mM HEPES (pH 7.5), 50 mM NaCl, 5 mM EDTA, 1% Triton X-100, 50 mM NaF, and 10 mM Na4P2O7, 1 mM phenylmethylsulfonyl fluoride (PMSF) and proteinase inhibitor cocktail (Roche Applied Science) for 30 min at 4° C. The cell lysates were centrifuged at 16000×g, for 15 min at 4° C. The supernatants were collected and protein concentrations were determined by the Bradford assay using bovine serum albumin (BSA) as a standard. Equivalent amounts of proteins were loaded on 12% SDS-PAGE gels and after electrophoretic separation were transferred on a PVDF membrane (Osmonics, Inc). […] Immunoblot signals were detected using Enhanced Chemiluminescence (ECL) reagent (Pierce). […]

T1 sequence (P0A7G6 whole entry): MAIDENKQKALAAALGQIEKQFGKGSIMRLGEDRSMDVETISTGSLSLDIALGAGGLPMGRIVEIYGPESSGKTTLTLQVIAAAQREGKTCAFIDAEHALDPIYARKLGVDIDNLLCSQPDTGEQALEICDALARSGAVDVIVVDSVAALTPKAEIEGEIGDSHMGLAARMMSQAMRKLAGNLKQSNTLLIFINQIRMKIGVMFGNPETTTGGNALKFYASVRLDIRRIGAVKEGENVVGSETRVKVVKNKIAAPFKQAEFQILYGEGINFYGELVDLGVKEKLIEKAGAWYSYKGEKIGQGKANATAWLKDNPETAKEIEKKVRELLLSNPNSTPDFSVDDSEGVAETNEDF

For `O=c1c2ccccc2nc(/C=C/c2cccnc2)n1Cc1ccccc1` [Compound B02, (E)-3-benzyl-2-(2-(pyridin-3-yl)vinyl)quinazolin-4(3H)-one], the IC50 ([1]; IC50 (RecA), RecA 1 μM, ssDNA 3 μM, dsDNA 50 μM) was greater than 250 µM, the IC50 ([1]; IC50 for RecA (D-loop), RecA 0.3 μM, ssDNA 0.9 μM, dsDNA 15 μM, B02 incubated with protein before ssDNA) was greater than 100 µM and the “inhibition of RecA DNA strand exchange, in words” value ([1]; up to 250 μM) was “no significant inhibition”. For the same compound, the “expression of I-SceI protein” value [2] was “did not affect”.
